Results as given in patent US9199985B2, “Compounds and methods for treatment of hypertension” (Medivation Technologies, Inc., priority 2011, dated 2015).

Settings: conscious rabbits, intravenous, dose regimen identical to test compound; positive control
Description: Four adult New Zealand White rabbits of both sexes are chosen for these studies. […] The conscious rabbits are implanted with an intravenous catheter in marginal ear vein or by centrally by intracisternal catheter interfaced to a pressure transducer connected to a suitable recorder. To unveil peripheral effects of test compound, two sets of acute studies are conducted in rabbits. In the first set of studies, test compound is dosed to rabbit intravenously for a dose-response study with cumulative doses starting 0 (Ringer's Lock solution as a vehicle), 0.1, 0.3, 1, 3.2 and 10 mg/kg where each dose is tested on a separate day. A single intravenous bolus dose at 3 mg/kg is given and a time-course study is conducted in the second set of studies. Systolic, diastolic, mean and diastolic blood pressures are recorded in both the studies. Data collections are made for 3 hours in the second set of studies. Heart rate (HR) is derived electronically using an algorithm to determine HR from pulse interval. In a separate set of studies, Clonidine (positive control) is tested where all experimental procedures including dose-regimen are identical to that of the studies with test compound.

Structure (SMILES): Clc1cccc(Cl)c1N=C1NCCN1 [Clonidine]
- maximum drop of arterial blood pressure: −6 mmHg
